Data published in ChEMBL document CHEMBL4130472, “Synthesis of naphthazarin derivatives and identification of novel thioredoxin reductase inhibitor as potential anticancer agent” (Eur J Med Chem, 2017).

Test system: HL-60
Experiment: Cytotoxicity in human HL60 cells assessed as cell viability at 20 uM incubated for 48 hrs by MTT assay
Type: functional
Settings: HL-60, 48 h, read-out: Activity

Molecule O=C1C=C(Nc2ccccc2)C(=O)c2c(O)ccc(O)c21 has a viability at 20 µM of 59.7%.

O=C1C=C(NCc2ccccc2)C(=O)c2c(O)ccc(O)c21 showed a viability at 20 µM of 54.6%.

Molecule O=C1C=CC(=O)c2c(Cl)ccc(O)c21 has a viability at 20 µM of 23.1%.

Work on O=C1C=C(N2CCOCC2)C(=O)c2c(O)ccc(O)c21 yielded a viability at 20 µM of 50.1%.

With CCC(C)NC1=CC(=O)c2c(O)ccc(O)c2C1=O (stereo not drawn) the viability at 20 µM was 57%.

In the case of CNC1=CC(=O)c2c(O)ccc(O)c2C1=O, the viability at 20 µM is reported as 63%.

With CCCCNC1=CC(=O)c2c(O)ccc(O)c2C1=O the viability at 20 µM was 59.2%.

CCCNC1=CC(=O)c2c(O)ccc(O)c2C1=O gave a viability at 20 µM of 59.4%.
